A word on the Ki: it is the dissociation constant of the complex between target and ligand, obtained from inhibition or displacement.

In one test the target is T1, PknB (Mycobacterium tuberculosis, UniProt P9WI81).
T1 construct: made in house
T1 sequence (P9WI81 whole entry): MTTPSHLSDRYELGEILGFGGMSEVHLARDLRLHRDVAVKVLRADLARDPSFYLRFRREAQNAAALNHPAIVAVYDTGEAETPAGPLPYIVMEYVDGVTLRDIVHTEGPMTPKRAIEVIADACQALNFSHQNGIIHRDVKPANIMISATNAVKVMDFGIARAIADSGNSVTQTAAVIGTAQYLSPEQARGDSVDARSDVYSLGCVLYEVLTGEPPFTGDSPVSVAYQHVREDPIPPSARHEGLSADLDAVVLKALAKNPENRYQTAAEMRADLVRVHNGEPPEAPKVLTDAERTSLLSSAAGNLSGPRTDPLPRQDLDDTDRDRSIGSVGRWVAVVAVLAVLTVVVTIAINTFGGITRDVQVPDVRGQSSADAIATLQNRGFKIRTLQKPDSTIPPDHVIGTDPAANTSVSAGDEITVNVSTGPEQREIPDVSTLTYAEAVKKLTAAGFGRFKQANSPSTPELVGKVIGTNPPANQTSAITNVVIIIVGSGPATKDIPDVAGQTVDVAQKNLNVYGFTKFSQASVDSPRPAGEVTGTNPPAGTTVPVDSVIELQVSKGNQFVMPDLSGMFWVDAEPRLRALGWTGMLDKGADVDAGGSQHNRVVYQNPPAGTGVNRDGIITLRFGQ
Put plainly: biochemical. On the set-up: species or system M. tuberculosis. Conditions: 3 nM PknB, 6 uM GarA, 3 μM ATP, 30 min; competitive tight-binding fit; several symbols in a cell = repeat determinations.
In the case of `CC(=O)c1ccc(-c2ncc(Cl)c(Nc3cc(C4CC4)[nH]n3)n2)s1` [Compound 116, 1-(5-(5-chloro-4-(5-cyclopropyl-1H-pyrazol-3-ylamino)pyrimidin-2-yl)thiophen-2-yl)ethanone], the “Ki Values” is on record as “A**, A*”.
The same measure, in the same setting: the entry for `NC(=O)c1ccc(Nc2nccc(Nc3cc(C4CC4)n[nH]3)n2)cc1` [Compound 60, 4-[[4-[(5-cyclopropyl-2H-pyrazol-3-yl)amino]pyrimidin-2-yl]amino]benzamide] is “C, C, D”.
The same measure, in the same setting: then `N#Cc1cc(Nc2cc(C3CC3)n[nH]2)nc(-c2ccc(S(N)(=O)=O)s2)n1` [Compound 295, 5-[4-cyano-6-[(5-cyclopropyl-2H-pyrazol-3-yl)amino]-pyrimidin-2-yl]thiophene-2-sulfonamide], with “A**, B**”; and `O=S(=O)(NCCO)c1cccc(-c2ncc(Cl)c(Nc3cc(C4CC4)[nH]n3)n2)c1` [Compound 95, 3-[5-chloro-4-[(5-cyclopropyl-1H-pyrazol-3-yl)amino]-pyrimidin-2-yl]-N-(2-hydroxyethyl)benzenesulfonamide], with “A*, A”.
As for `C[C@H](O)c1ccc(-c2ncc(Cl)c(Nc3cc(C4CC4)[nH]n3)n2)s1` [Compound 132, (S)-1-(5-(4-(5-cyclopropyl-1H-pyrazol-3-ylamino)-5-chloropyrimidin-2-yl)thiophen-2-yl)ethanol], the “Ki Values” was “A**, A*”.
On the same count and under the same terms, then `CS(=O)(=O)c1ccc(-c2ncc(Cl)c(Nc3cc(C4CC4)[nH]n3)n2)cc1` [Compound 23, 5-chloro-N-(5-cyclopropyl-1H-pyrazol-3-yl)-2-(4-methylsulfonylphenyl)-pyrimidin-4-amine], with “A, B**”.
The same measure, in the same setting: then `C#Cc1cnc(-c2ccc(S(=O)(=O)NC(=O)C(C)(C)C)s2)nc1Nc1cc(C2CC2)[nH]n1` [Compound 201, N-[[5-[4-[(5-cyclopropyl-1H-pyrazol-3-yl)amino]-5-ethynyl-pyrimidin-2-yl]-2-thienyl]sulfonyl]-2,2-dimethyl-propanamide], with “B*, B*, B”; and `Nc1cnc(-c2ccccc2)nc1Nc1cc(C2CC2)[nH]n1` [Compound 5, N-(5-cyclopropyl-1H-pyrazol-3-yl)-2-phenylpyrimidine-4,5-diamine], with “A*, A”.
On the same count and under the same terms, the entry for `CC(C)(O)c1ccc(-c2ncc(Cl)c(Nc3cc(C4CC4)[nH]n3)n2)s1` [Compound 87, 2-(5-(5-chloro-4-(5-cyclopropyl-1H-pyrazol-3-ylamino)pyrimidin-2-yl)thiophen-2-yl)propan-2-ol] is “A**, A*”; for `CC(=O)NS(=O)(=O)c1ccc(-c2ncc(Cl)c(Nc3cc(C4CC4)[nH]n3)n2)s1` [Compound 194, N-[[5-[5-chloro-4-[(5-cyclopropyl-1H-pyrazol-3-yl)amino]-pyrimidin-2-yl]-2-thienyl]sulfonyl]acetamide] it is “A, B**”.

The same test, now with this note: 3 nM PknB, 6 uM GarA, 3 μM ATP, 30 min; competitive tight-binding fit; several symbols in a cell = repeat determinations; read-out: Ki Values.
For `NS(=O)(=O)c1ccccc1-c1ncc(Cl)c(Nc2cc(C3CC3)[nH]n2)n1` [Compound 155, 2-[5-chloro-4-[(5-cyclopropyl-1H-pyrazol-3-yl)amino]-pyrimidin-2-yl]benzenesulfonamide], the inhibition constant (Ki) was over 4 µM.
Still for that read-out and setting: then `O=S(=O)(c1ccc(-c2ncc(Cl)c(Nc3cc(C4CC4)[nH]n3)n2)s1)N1CCNCC1` [Compound 135, 5-chloro-N-(5-cyclopropyl-1H-pyrazol-3-yl)-2-(5-piperazin-1-ylsulfonyl-2-thienyl)-pyrimidin-4-amine], with 0.01 to 0.05 µM; and `C#Cc1cnc(N2CCN(C(C)=O)CC2)nc1Nc1cc(C2CC2)n[nH]1` [Compound 185, 1-[4-[4-[(5-cyclopropyl-2H-pyrazol-3-yl)amino]-5-ethynyl-pyrimidin-2-yl]piperazin-1-yl]ethanone], with 0.5 to 1 µM.
The same measure, in the same setting: the figure for `O=C1/C=C\c2c(n[nH]c2C2CC2)Nc2nc(ncc2Cl)-c2ccccc21` [Compound 277, chloro-cyclopropyl-BLAHone] is over 4 µM; for `C#Cc1cnc(-c2ccc(C(O)CCOC(C)=O)s2)nc1Nc1cc(C2CC2)[nH]n1` (stereo not drawn) [Compound 243, 3-(5-(4-(5-cyclopropyl-1H-pyrazol-3-ylamino)-5-ethynylpyrimidin-2-yl)thiophen-2-yl)-3-hydroxypropyl acetate] it is 0.01 to 0.05 µM; for `NS(=O)(=O)c1ccc(-c2ccnc(Nc3cc(C4CC4)n[nH]3)n2)s1` [Compound 315, 5-[2-[(5-cyclopropyl-2H-pyrazol-3-yl)amino]pyrimidin-4-yl]thiophene-2-sulfonamide] it is 0.001 to 0.01 µM.
Still for that read-out and setting: then `CN(CCO)S(=O)(=O)c1cccc(-c2ncc(Cl)c(Nc3cc(C4CC4)[nH]n3)n2)c1` [Compound 134, 3-[5-chloro-4-[(5-cyclopropyl-1H-pyrazol-3-yl)amino]-pyrimidin-2-yl]-N-(2-hydroxyethyl)-N-methyl-benzenesulfonamide], with 0.01 to 0.05 µM; and `NS(=O)(=O)c1ccc(-c2nc(Nc3cc(C4CC4)[nH]n3)cc(C(=O)O)n2)s1` [Compound 283, 6-[(5-cyclopropyl-1H-pyrazol-3-yl)amino]-2-(5-sulfamoyl-2-thienyl)-pyrimidine-4-carboxylic acid], with 0.1 to 0.5 µM.
Consider `NS(=O)(=O)c1ccc(-c2ncc(/C=C/CO)c(Nc3cc(C4CC4)[nH]n3)n2)s1` [Compound 281, (E)-5-(4-(5-cyclopropyl-1H-pyrazol-3-ylamino)-5-(3-hydroxyprop-1-enyl)pyrimidin-2-yl)thiophene-2-sulfonamide], for which the Ki fell in the range of 0.001 to 0.01 µM.
Same read-out and setting: then `Clc1cnc(-c2ccco2)nc1Nc1cc(C2CC2)[nH]n1` [Compound 164, 5-chloro-N-(5-cyclopropyl-1H-pyrazol-3-yl)-2-(furan-2-yl)pyrimidin-4-amine], with 0.1 to 0.5 µM; and `NS(=O)(=O)c1ccc(-c2ncc(F)c(Nc3cc(C4CC4)[nH]n3)n2)s1` [Compound 52, 5-(4-(5-cyclopropyl-1H-pyrazol-3-ylamino)-5-fluoropyrimidin-2-yl)thiophene-2-sulfonamide], with 0.001 to 0.01 µM.
The same measure, in the same setting: the figure for `Nc1cccc(Nc2nccc(Nc3cc(C4CC4)n[nH]3)n2)c1` [Compound 100, N-(3-aminophenyl)-N′-(5-cyclopropyl-2H-pyrazol-3-yl)-pyrimidine-2,4-diamine] is 0.1 to 0.5 µM; for `C#Cc1cnc(N2CCCN(C(C)=O)CC2)nc1Nc1cc(C2CC2)n[nH]1` [Compound 258, 1-[4-[4-[(5-cyclopropyl-2H-pyrazol-3-yl)amino]-5-ethynyl-pyrimidin-2-yl]-1,4-diazepan-1-yl]ethanone] it is 0.1 to 0.5 µM.
Same read-out and setting: the figure for `NNS(=O)(=O)c1ccc(-c2ncc(Cl)c(Nc3cc(C4CC4)[nH]n3)n2)s1` [Compound 251, 5-(5-chloro-4-(5-cyclopropyl-1H-pyrazol-3-ylamino)pyrimidin-2-yl)thiophene-2-sulfonohydrazide] is 0.01 to 0.05 µM; for `OC1CCCc2nc(-c3ncc(Cl)c(Nc4cc(C5CC5)[nH]n4)n3)sc21` (stereo not drawn) [Compound 310, 2-[5-chloro-4-[(5-cyclopropyl-1H-pyrazol-3-yl)amino]-pyrimidin-2-yl]-4,5,6,7-tetrahydrobenzothiazol-7-ol] it is 0.1 to 0.5 µM; for `CC(C)(C)NS(=O)(=O)c1ccc(-c2nc(CO)cc(Nc3cc(C4CC4)[nH]n3)n2)s1` [Compound 286, 5-[4-[(5-cyclopropyl-1H-pyrazol-3-yl)amino]-6-(hydroxymethyl)pyrimidin-2-yl]-N-tert-butyl-thiophene-2-sulfonamide] it is 0.01 to 0.05 µM.
`CSc1cc(Nc2cc(C3CC3)n[nH]2)nc(-c2ccc(S(N)(=O)=O)s2)n1` [Compound 291, 5-[4-[(5-cyclopropyl-2H-pyrazol-3-yl)amino]-6-methylsulfanyl-pyrimidin-2-yl]thiophene-2-sulfonamide]: the Ki is 0.1 to 0.5 µM.
With `C#Cc1cnc(N2CCNCC2)nc1Nc1cc(C2CC2)n[nH]1` [Compound 175], the Ki lay in the range of 2 to 4 µM.
Still for that read-out and setting: the figure for `CN(C)c1cc(Nc2cc(C3CC3)n[nH]2)nc(-c2ccc(S(N)(=O)=O)s2)n1` [Compound 282, 5-[4-[(5-cyclopropyl-2H-pyrazol-3-yl)amino]-6-dimethylamino-pyrimidin-2-yl]thiophene-2-sulfonamide] is 2 to 4 µM; for `CC(C)(C)NS(=O)(=O)C/C=C/c1nccc(Nc2cc(C3CC3)[nH]n2)n1` [Compound 56, 3-[4-[(5-cyclopropyl-1H-pyrazol-3-yl)amino]pyrimidin-2-yl]-N-tert-butyl-prop-2-ene-1-sulfonamide] it is 1 to 2 µM; for `C/C=C/c1cnc(-c2ccccc2)nc1Nc1cc(C2CC2)[nH]n1` [Compound 11, (E)-N-(5-cyclopropyl-1H-pyrazol-3-yl)-2-phenyl-5-(prop-1-enyl)pyrimidin-4-amine] it is 0.1 to 0.5 µM.
On the same count and under the same terms, then `NS(=O)(=O)c1ccc(-c2nc(Nc3cc(C4CC4)n[nH]3)cc(C3CC3)n2)s1` [Compound 298, 5-(4-cyclopropyl-6-(3-cyclopropyl-1H-pyrazol-5-ylamino)pyrimidin-2-yl)thiophene-2-sulfonamide], with 0.05 to 0.1 µM; and `C#Cc1cnc(-c2ccc(S(C)(=O)=O)s2)nc1Nc1cc(C2CC2)[nH]n1` [Compound 255, N-(5-cyclopropyl-4H-pyrazol-3-yl)-5-ethynyl-2-(5-(methylsulfonyl)thiophen-2-yl)pyrimidin-4-amine], with 0.001 to 0.01 µM; and `OCC(O)c1ccc(-c2ncc(Cl)c(Nc3cc(C4CC4)[nH]n3)n2)s1` (stereo not drawn) [Compound 327, 1-[5-[5-chloro-4-[(5-cyclopropyl-1H-pyrazol-3-yl)amino]-pyrimidin-2-yl]-2-thienyl]ethane-1,2-diol], with 0.01 to 0.05 µM.
On the same count and under the same terms, then `N#Cc1ccc(Nc2ncc(Cl)c(Nc3cc(C4CC4)[nH]n3)n2)cc1` [Compound 84, 4-[[5-chloro-4-[(5-cyclopropyl-1H-pyrazol-3-yl)amino]-pyrimidin-2-yl]amino]benzonitrile], with 0.01 to 0.05 µM.
Consider `C#Cc1cnc(N2CC[C@H](NC(C)=O)C2)nc1Nc1cc(C2CC2)n[nH]1` (stereo in doubt) [Compound 195, N-[1-[4-[(5-cyclopropyl-2H-pyrazol-3-yl)amino]-5-ethynyl-pyrimidin-2-yl]pyrrolidin-3-yl]acetamide], for which the Ki was in the range of 2 to 4 µM.

The values above are taken from patent US20110053916A1 (Vertex Pharmaceuticals Incorporated, priority 2009, published 2011).
